EC50 data for 5 compounds are collected here from patent US8846948B2, “Compounds” (Boehringer Ingelheim International GmbH, priority 2011, dated 2014).

pEC50: −log10 of the molar value.

T1 sequence (P41594 21-1212): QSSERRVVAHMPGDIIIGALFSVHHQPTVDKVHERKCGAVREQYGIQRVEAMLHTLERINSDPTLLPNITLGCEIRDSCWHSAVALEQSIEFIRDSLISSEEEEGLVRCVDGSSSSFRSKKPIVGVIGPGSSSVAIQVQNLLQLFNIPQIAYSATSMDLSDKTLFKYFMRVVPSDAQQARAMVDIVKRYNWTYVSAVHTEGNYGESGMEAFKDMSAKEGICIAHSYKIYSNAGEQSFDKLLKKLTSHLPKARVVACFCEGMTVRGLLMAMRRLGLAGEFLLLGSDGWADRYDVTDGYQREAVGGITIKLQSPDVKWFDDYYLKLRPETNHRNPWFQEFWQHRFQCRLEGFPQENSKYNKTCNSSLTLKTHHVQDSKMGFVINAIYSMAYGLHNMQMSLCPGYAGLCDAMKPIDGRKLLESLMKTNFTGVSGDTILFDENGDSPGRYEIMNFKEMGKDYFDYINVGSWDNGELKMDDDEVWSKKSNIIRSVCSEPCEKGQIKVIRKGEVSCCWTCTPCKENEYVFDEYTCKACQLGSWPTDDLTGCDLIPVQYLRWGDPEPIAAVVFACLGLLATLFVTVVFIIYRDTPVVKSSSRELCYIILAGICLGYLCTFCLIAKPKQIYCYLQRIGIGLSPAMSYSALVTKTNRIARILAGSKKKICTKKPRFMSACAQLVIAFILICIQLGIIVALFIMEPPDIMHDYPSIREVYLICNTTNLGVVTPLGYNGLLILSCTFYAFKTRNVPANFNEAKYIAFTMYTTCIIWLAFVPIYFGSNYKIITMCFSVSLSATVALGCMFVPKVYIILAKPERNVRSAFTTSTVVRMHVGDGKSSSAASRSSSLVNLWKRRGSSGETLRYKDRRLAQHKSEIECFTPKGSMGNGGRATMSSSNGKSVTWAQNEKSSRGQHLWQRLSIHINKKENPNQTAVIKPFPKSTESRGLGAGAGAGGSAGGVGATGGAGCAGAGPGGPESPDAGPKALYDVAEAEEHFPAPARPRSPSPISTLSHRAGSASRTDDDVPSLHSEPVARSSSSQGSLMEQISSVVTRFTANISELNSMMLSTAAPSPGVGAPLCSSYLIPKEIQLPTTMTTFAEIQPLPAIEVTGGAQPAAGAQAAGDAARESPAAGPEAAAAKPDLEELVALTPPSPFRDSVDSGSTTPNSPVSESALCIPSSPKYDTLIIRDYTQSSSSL

The test addresses T1, human recombinant mGluR5 (Homo sapiens, UniProt P41594).
T1 construct: expressed in transfected cells; host or cells: HEK 293 cell line, cultured with tetracycline, hygromycin and geneticin
The test is described as follows: Positive modulation of mGluR5, calcium based FLIPR assay. The following applies: EC50 of the modulation; HEK 293 cell line expressing human recombinant mGluR5; peak height of Ca release fluorescence signal after glutamate at approximately 5% basal stimulation. As for the experimental part: The positive modulation of mGluR5 is measured in a HEK 293 cell line expressing human recombinant mGluR5 and is detected with calcium based FLIPR assay. The cells are cultured with DMEM supplemented with 10% FCS, 2 μg/mL tetracycline, 100 μg/mL hygromycin and 500 μg/mL gneticin. The cell culture media is exchanged for tetracycline-free cell culture media 3-7 days before the assay. One day before the assay the cell culture medium is exchanged to DMEM without glutamine and phenol red and supplemented with 10% FCS, 100 μg/mL hygromycin and 500 μg/mL geneticin. On the assay day, the medium of the subconfluent cultures is removed and the cells are detached by addition of 2.5 ml EDTA (0.02%) per 175 cm2 culture flask for 1 minute. The cells are resuspend in Ringer solution (140 mM NaCl, 5 mM KCl, 2.5 mM CaCl2, 1.5 mM MgCl2, 5 mM Glucose, 10 mM Hepes; adjusted to pH 7.4 with NaOH), pooled and Ringer solution added to adjust the volume to 50 mL. The cell suspension is centrifuged for […] at 1500 U/min (425 g). The supernatant is removed and the cells washed a second time with 50 ml fresh Ringer solution and centrifuged again as before. The supernatant is again removed and the pellet resuspended in Ringer solution to 1,000,000 cells/ml (1×10^6 cells/mL). The cells are plated onto BD BioCoat Poly-D-Lysine 384 well plates (20.000 cells/well; 20 μl/well). The lid covered plates are then incubated until use at 37° C./10% CO2. For dye loading, 20 μl of Calcium-4 assay kit solution (prepared according to the manufacturer's description in Ringer solution) are added to the cells and the plates are incubated for […] 37° C. and then […] at room temperature.
Controls, Compound dilution and assay execution:
Each assay plate contained wells with “high” and “low” controls:
Low controls 1% DMSO/ringer solution+basal glutamate activation (defined as 100% CTL).
High controls 10 μM CDPPB+basal glutamate activation (defined as 200% CTL).
Test compounds are dissolved and diluted in DMSO to 100-fold the desired concentrations. In a second step, the compounds are diluted in Ringer solution such that the compounds are 4-fold more concentrated than the desired final assay concentration. The final DMSO concentration was 1%.
20 μl of each compound solution are then transferred to the assay plate and the Ca2+ kinetic is measured to determine any intrinsic compound activity. After 5 mM incubation in the FLIPR device, the second stimulation with 20 μl of glutamate in Ringer solution (glutamate concentration adjusted to approximately 5% basal stimulation of the maximal possible glutamate effect) is added and the kinetic Ca2+ response of the wells was measured for the modulation effect.
The peak height of the Ca release related fluorescence signal (9-66) is used for the EC50. The EC50 of the modulation is calculated over a nonlinear regression with GraphPad Prism (Table 1).
Broadly, the pEC50 is the negative decadic logarithm of the EC50, by convention in mol/L. For `COc1cc(-c2cn(CC(=O)N3CCN(c4ncccn4)CC3)c(-c3ccccc3)n2)ccc1F` [Example 7.03.17.], the pEC50 was 7.40.

On to `Cc1cc(-c2cn(CC(=O)N3CCN(c4ccccn4)CC3)c(-c3ccccc3)n2)ccc1F` [Example 7.01.06.], for which the pEC50 is 7.12.

Consider `Cc1cc(-c2cn(CC(=O)N3CCN(c4ncc(F)cn4)CC3)c(-c3ccccc3)n2)ccc1F` [Example 7.01.08.], for which the negative-log EC50 (pEC50) is 7.01.

In the case of `COc1cc(N2CCN(C(=O)Cn3cc(-c4ccc(F)cc4)nc3-c3ccccc3)CC2)ncn1` [Example 7.01.16.], the pEC50 was 6.06.

As for `CCOc1cccc(-c2cn(CC(=O)N3CCN(c4ncccn4)CC3)c(-c3ccccc3)n2)c1` [Example 7.03.08.], the pEC50 is 6.82.
